Assay results published in patent publication US20220401589A1, “PRE-TARGETING IMAGING AGENTS” (Eli Lilly and Company, priority 2019, published 2022).
Blank lines part the entries; values can stand above or below the molecule they belong to.

What was measured:
[1] = Reduction of tetrazine moiety by ascorbate formulation; format: physicochemical
From the text: In another aspect the present embodiments provide a pharmaceutical composition comprising Compound 1 or Compound 2, or pharmaceutically acceptable salt thereof, which is formulated in ethanol (such as, for example 10% EtOH (v/v)) and buffer (which may be PBS buffer), preferably for use in humans. […] Thus, although ascorbate formulation is readily used in many formulations for imaging, it may not be suitable for imaging with the compounds of Formula I or Formula II.

[2] = Dynamic PET-CT imaging, tracer uptake in brain, muscle and bone; format: in vivo, Male CD-1 mice; settings: for Bone Mean / Brain Mean / Muscle Mean: 60 minute PET scan
Experimental: PET-CT imaging of [^18F]—N-(4-(1,2,4,5-tetrazin-3-yl)benzyl)-4-fluorobenzamide
A Siemens Inveon® Multimodality Scanner (Siemens, Germany) is used for micro PET/CT imaging. Male CD-1 (6-week-old, ˜30 g) mice are anesthetized with 3% isoflurane/97% oxygen and placed on the bed of the scanner. The mice are administered [^18F]—N-(4-(1,2,4,5-tetrazin-3-yl)benzyl)-4-fluorobenzamide via a bolus intravenous tail vein injection (˜[…] in a total volume of 200 μL saline). A total of six (four 60 min and two 90 min) dynamic PET scans are conducted, followed by a short high-resolution CT scan for anatomical registration. PET images are generated for each minute of the acquisition time. Uptake of the tracer in the brain, muscle, and bone are determined by visually drawing regions of interest (ROIs) based on the fused PET/CT images and the corresponding activity values are determined using the Inveon® Research Workplace software. All values are represented as % injected dose per gram (% ID/g).
Bone uptake throughout the scan period remained low, consistent with an absence of defluorination for this tracer. Results of the 90 min scans are similar to the 60 min scan results with peak brain uptake observed at 3.4% ID/g at 2.5 min post injection followed by an immediate wash out to 0.6% ID/g by 59.5 min. Residual uptake is also observed throughout the body of the mouse. Time activity curves are generated for [^18F]—N-(4-(1,2,4,5-tetrazin-3-yl)benzyl)-4-fluorobenzamide in CD-1 male mice (n=4). Data is shown in graphical format in FIGS. 1A and 1B and in tabular format below.

reduction of the tetrazine moiety [1]: readily reduced
SMILES: O=C(NCc1ccc(-c2nncnn2)cc1)c1ccc(F)cc1 [Compound 1, N-(4-(1,2,4,5-tetrazin-3-yl)benzyl)-4-fluorobenzamide]

reduction of the tetrazine moiety [1]: readily reduced
Bone Mean ([2]; time 2.5 min): 1.28 % ID/g
Brain Mean ([2]; time 2.5 min): 4.06 % ID/g
Muscle Mean ([2]; time 2.5 min): 1.14 % ID/g
Bone Mean ([2]; time 3.5 min): 1.09 % ID/g
Brain Mean ([2]; time 3.5 min): 3.70 % ID/g
Muscle Mean ([2]; time 3.5 min): 1.13 % ID/g
Bone Mean ([2]; time 4.5 min): 1.04 % ID/g
Brain Mean ([2]; time 4.5 min): 3.36 % ID/g
Muscle Mean ([2]; time 4.5 min): 1.15 % ID/g
Bone Mean ([2]; time 5.5 min): 1.01 % ID/g
Brain Mean ([2]; time 5.5 min): 3.20 % ID/g
Muscle Mean ([2]; time 5.5 min): 1.17 % ID/g
Bone Mean ([2]; time 6.5 min): 1.07 % ID/g
Brain Mean ([2]; time 6.5 min): 3.01 % ID/g
Muscle Mean ([2]; time 6.5 min): 1.10 % ID/g
Bone Mean ([2]; time 7.5 min): 1.12 % ID/g
Brain Mean ([2]; time 7.5 min): 2.81 % ID/g
Muscle Mean ([2]; time 7.5 min): 1.11 % ID/g
Bone Mean ([2]; time 8.5 min): 1.04 % ID/g
Brain Mean ([2]; time 8.5 min): 2.62 % ID/g
Muscle Mean ([2]; time 8.5 min): 1.15 % ID/g
Bone Mean ([2]; time 9.5 min): 0.97 % ID/g
Brain Mean ([2]; time 9.5 min): 2.46 % ID/g
Muscle Mean ([2]; time 9.5 min): 1.09 % ID/g
Bone Mean ([2]; time 10.5 min): 1.03 % ID/g
Brain Mean ([2]; time 10.5 min): 2.32 % ID/g
Muscle Mean ([2]; time 10.5 min): 1.09 % ID/g
Bone Mean ([2]; time 11.5 min): 1.01 % ID/g
Brain Mean ([2]; time 11.5 min): 2.17 % ID/g
Muscle Mean ([2]; time 11.5 min): 1.08 % ID/g
Bone Mean ([2]; time 12.5 min): 0.93 % ID/g
Brain Mean ([2]; time 12.5 min): 2.07 % ID/g
Muscle Mean ([2]; time 12.5 min): 1.06 % ID/g
Bone Mean ([2]; time 13.5 min): 0.96 % ID/g
Brain Mean ([2]; time 13.5 min): 1.97 % ID/g
Muscle Mean ([2]; time 13.5 min): 1.06 % ID/g
Bone Mean ([2]; time 14.5 min): 0.78 % ID/g
Brain Mean ([2]; time 14.5 min): 1.88 % ID/g
Muscle Mean ([2]; time 14.5 min): 1.00 % ID/g
Bone Mean ([2]; time 15.5 min): 0.89 % ID/g
Brain Mean ([2]; time 15.5 min): 1.79 % ID/g
Muscle Mean ([2]; time 15.5 min): 1.02 % ID/g
Bone Mean ([2]; time 16.5 min): 0.96 % ID/g
Brain Mean ([2]; time 16.5 min): 1.70 % ID/g
Muscle Mean ([2]; time 16.5 min): 1.02 % ID/g
Bone Mean ([2]; time 17.5 min): 0.87 % ID/g
Brain Mean ([2]; time 17.5 min): 1.64 % ID/g
Muscle Mean ([2]; time 17.5 min): 1.03 % ID/g
Bone Mean ([2]; time 18.5 min): 0.92 % ID/g
Brain Mean ([2]; time 18.5 min): 1.58 % ID/g
Muscle Mean ([2]; time 18.5 min): 1.05 % ID/g
Bone Mean ([2]; time 19.5 min): 0.93 % ID/g
Brain Mean ([2]; time 19.5 min): 1.52 % ID/g
Muscle Mean ([2]; time 19.5 min): 0.94 % ID/g
Bone Mean ([2]; time 20.5 min): 1.01 % ID/g
Brain Mean ([2]; time 20.5 min): 1.47 % ID/g
Muscle Mean ([2]; time 20.5 min): 0.95 % ID/g
Bone Mean ([2]; time 21.5 min): 0.88 % ID/g
Brain Mean ([2]; time 21.5 min): 1.42 % ID/g
Muscle Mean ([2]; time 21.5 min): 1.06 % ID/g
Bone Mean ([2]; time 22.5 min): 0.99 % ID/g
Brain Mean ([2]; time 22.5 min): 1.38 % ID/g
Muscle Mean ([2]; time 22.5 min): 1.04 % ID/g
Bone Mean ([2]; time 23.5 min): 0.85 % ID/g
Brain Mean ([2]; time 23.5 min): 1.33 % ID/g
Muscle Mean ([2]; time 23.5 min): 0.92 % ID/g
Bone Mean ([2]; time 24.5 min): 0.88 % ID/g
Brain Mean ([2]; time 24.5 min): 1.29 % ID/g
Muscle Mean ([2]; time 24.5 min): 0.96 % ID/g
Bone Mean ([2]; time 25.5 min): 1.02 % ID/g
Brain Mean ([2]; time 25.5 min): 1.26 % ID/g
Muscle Mean ([2]; time 25.5 min): 0.97 % ID/g
Bone Mean ([2]; time 26.5 min): 0.88 % ID/g
Brain Mean ([2]; time 26.5 min): 1.23 % ID/g
Muscle Mean ([2]; time 26.5 min): 0.92 % ID/g
Bone Mean ([2]; time 27.5 min): 0.83 % ID/g
Brain Mean ([2]; time 27.5 min): 1.18 % ID/g
Muscle Mean ([2]; time 27.5 min): 0.89 % ID/g
Bone Mean ([2]; time 28.5 min): 0.92 % ID/g
Brain Mean ([2]; time 28.5 min): 1.17 % ID/g
Muscle Mean ([2]; time 28.5 min): 0.91 % ID/g
Bone Mean ([2]; time 29.5 min): 0.93 % ID/g
Brain Mean ([2]; time 29.5 min): 1.14 % ID/g
Muscle Mean ([2]; time 29.5 min): 0.94 % ID/g
Bone Mean ([2]; time 30.5 min): 0.92 % ID/g
Brain Mean ([2]; time 30.5 min): 1.11 % ID/g
Muscle Mean ([2]; time 30.5 min): 0.93 % ID/g
Bone Mean ([2]; time 31.5 min): 0.96 % ID/g
Brain Mean ([2]; time 31.5 min): 1.09 % ID/g
Muscle Mean ([2]; time 31.5 min): 0.99 % ID/g
Bone Mean ([2]; time 32.5 min): 0.85 % ID/g
Brain Mean ([2]; time 32.5 min): 1.07 % ID/g
Muscle Mean ([2]; time 32.5 min): 0.89 % ID/g
Bone Mean ([2]; time 33.5 min): 0.95 % ID/g
Brain Mean ([2]; time 33.5 min): 1.04 % ID/g
Muscle Mean ([2]; time 33.5 min): 0.93 % ID/g
Brain Mean ([2]; time 34.5 min): 1.04 % ID/g
peak brain uptake ([2]; 90 min scans, 2.5 min post injection): 3.4 % ID/g
brain uptake after wash out ([2]; 90 min scans, by 59.5 min): 0.6 % ID/g
peak brain uptake ([2]; WT mice, approximately 2.5 min post injection): 4.1±0.3 % ID/g
brain uptake after steady clearance of tracer ([2]; WT mice, by 60 minutes): 0.8±0.1 % ID/g
Bone uptake throughout the scan period ([2]; consistent with an absence of defluorination): remained low
crossing of the blood-brain-barrier ([2]; dynamic PET imaging in mice): readily crosses the blood-brain-barrier
peak brain uptake ([2]; four 60-minute PET scans, 2.5 min post injection): 4.1 % ID/g
brain uptake after steady clearance of tracer ([2]; four 60-minute PET scans, at 59.5 min): 0.8 % ID/g
SMILES: O=C(NCc1ccc(-c2nncnn2)cc1)c1ccc([18F])cc1 [[^18F]—N-(4-(1,2,4,5-tetrazin-3-yl)benzyl)-4-fluorobenzamide]
Uptake throughout the body ([2]; 60-minute PET scans): observed throughout the body in organs such as the liver, kidneys and heart
